In paper PMC12529149, “Chemical and Antiplasmodial Investigations on Carapa-Derived Gedunin Derivatives and Semisynthetic 6- and 7‑Substituted Gedunin Analogues from the Brazilian Amazon” (ACS Omega, 2025):
Several values for one entry are separate records, joined by “and”; a condition that tells them apart may be missing. Equal entries are not always repeated. Where two headings read alike, the source gives them in different places.

How the values were obtained:
[1] = test system: K1 strain of Plasmodium falciparum; assay: In vitro susceptibility assay (microtest), P. falciparum K1 growth inhibition; assay type: cell-based; details: Plasmodium falciparum, K1, 48 h, K1 strain, 48 h, CI95 in brackets; read-out: P. falciparum IC50 (CI95)
Method: In vitro culture of the K1 strain of P. falciparum (MRA-159, MR4, ATCC, Manassas, Virginia, USA) proceeded following an established method with modifications. Briefly, this method involved the growth of parasites in human type A+ red blood cells and RPMI 1640 medium supplemented with 10% type A+ human plasma at 37 °C under an atmosphere of 5% O2, 5% CO2, and 90% N2.
As initial condition for the susceptibility assay, cultures were synchronized by treatment with 5% D-sorbitol, which provided young trophozoites (ring stages). Performance of the microtest followed a previously described procedure with modifications. Compounds were dissolved in DMSO with the aid of an ultrasound bath to provided stock solutions. […] These diluted samples were evaluated in duplicate in a 96-well test plate. A suspension of parasitized red blood cells (pRBCs) at 2% hematocrit and 1% parasitemia was added to each well. Microplate incubation proceeded for 48 h at 37 °C under the same atmosphere used for parasite culture in two independent experiments conducted on different days. Control wells contained chloroquine (0.003–2.5 μg/mL) and quinine (0.003–2.5 μg/mL). Six (6) control (blank) wells were prepared with pRBCs suspension. Six cosolvent control wells were prepared with 1% DMSO and pRBCs suspension. An average of these 12 controls defined drug-free (untreated) growth. After the incubation period, thin blood smears of the contents of each well were prepared on microscope slides. Optical microscopy was used to analyze the blood smears and establish the parasitemia of each well. Interpolation of the nonlinear curve using GraphPad Prism permitted the calculation of estimates of the sample concentrations able to inhibit 50% of parasite growth (IC50) compared to drug-free controls.

MRC-5 human fibroblasts [2] = assay: Cytotoxicity/cell viability assay (Alamar blue); assay type: cell-based; details: MRC5, MRC-5, tested at 50 μg/mL for 48 h, read-out: fibroblasts IC50
Method: Medical Research Council cell strain 5 (MRC-5) human fetal fibroblasts were cultivated in Dulbecco′s modified Eagle’s medium (DMEM) supplemented with 10% bovine fetal serum and 1% antibiotic at 37 °C under an atmosphere of 5% CO2. Cell viability assessment relied on the Alamar blue method. […] Doxorubicin at concentrations of 0.312, 0.625, 1.25, 2.50, 5.00, 10.0, and 20.0 μM was used as a positive control for cell death. The negative control wells received DMSO (sample diluent) at 0.1%. In preparation for the assay, this method involved plating 0.5 × 10^4 cells/well on 96 well test plates and incubating for 24 h under the same conditions used for cell culture. This initial 24 h period was necessary for cell adhesion. The assay consisted of triplicate addition of diluted samples and controls to wells followed by 48 h of incubation. For quantification of viable cells, 10 μL of 0.4% Alamar blue (Sigma-Aldrich)–which works out to an in-well concentration of 0.02%–were added to each well 3 h before the end of the treatment. Alamar blue was allowed to react for 3 h followed by quantification of the optical density (OD) of each well at an excitation wavelength of 465 nm and emission wavelength of 540 nm using an ELISA plate reader (DTX-800, Beckman Coulter). Comparison of individual sample viability OD to that of controls (blanks) afforded the cell viability. Interpolation of the nonlinear curve using GraphPad Prism software permitted the calculation of estimates of the sample IC50 values compared to drug-free controls.

[3] = test system: P. falciparum K1 strain vs MRC-5 human fibroblasts; assay: Selectivity index, IC50 (human fibroblasts) ÷ IC50 (P. falciparum); assay type: cell-based, Plasmodium falciparum
Text: Calculation of the selectivity index (SI) using the following formula afforded the relative toxicity of each sample to human fibroblasts and to P. falciparum blood stages: SI = IC50 (human fibroblasts) ÷ IC50 (P. falciparum).

[4] = test system: variety of P. falciparum strains; details: chloroquine-resistant (Dd2, K1, W2) and chloroquine-sensitive (3D7, D6, D10, FCR3, FCR3TC) strains; ref literature (numbers not shown); read-out: IC50, in vitro growth; cited from earlier work
[5] = test system: P. falciparum FCR3 strain; set-up: method as in literature (numbers not shown); details: ref literature (numbers not shown); cited from earlier work
P. falciparum K1 strain = test system: P. falciparum K1 strain; set-up: method as in earlier work; details: ref previous reports incl. authors' earlier work (numbers not shown); cited from earlier work
P. falciparum Dd2 strain = details: ref recent study on C. guianensis (number not shown); cited from earlier work
P. falciparum W2 strain = test system: P. falciparum W2 strain; set-up: method as in literature (numbers not shown); details: ref literature (numbers not shown), listed as gedunin; cited from earlier work
P. falciparum D10 strain = test system: P. falciparum D10 strain; set-up: method as in literature (number not shown); details: ref literature (number not shown); cited from earlier work
Plasmodium berghei = details: P. berghei-infected mice, cited from earlier work
[6] = test system: mouse mammary carcinoma (FM3A) cell cultures; set-up: method as in literature (number not shown); details: ref literature (number not shown); cited from earlier work
Hs578Bst cells = test system: Hs578Bst cells; set-up: method as in literature (number not shown); details: immortalized, adult-derived normal cells; ref literature (number not shown); cited from earlier work
[7] = test system: human mammary epithelial cells (HME); set-up: method as in literature (number not shown); details: ref literature (number not shown); cited from earlier work
MRC-5 human fibroblasts [8] = test system: MRC-5 human fibroblasts; set-up: method as in authors' previous evaluation (number not shown); details: ref authors' previous evaluation (number not shown); cited from earlier work

For `CC(=O)O[C@@H]1C[C@H]2C(C)(C)C(=O)C=C[C@]2(C)[C@H]2CC[C@@]3(C)[C@H](c4ccoc4)OC(=O)[C@H]4O[C@]43[C@@]21C` (single isomer, unassigned) [compound 4, gedunin], the IC50 [1] was 1.4 µg/mL and 2.8 µM, the IC50 (MRC-5 human fibroblasts [2]) was over 100000 nM and the “selectivity index (SI)” value [3] was over 37. For the same compound, the IC50 [4] was 20 to 3100 nM, the IC50 [5] was 2500 nM and the IC50 (P. falciparum K1 strain) was 1500 nM. For the same compound, the IC50 (P. falciparum Dd2 strain) was 2800 ± 200 nM, the IC50 (P. falciparum W2 strain) was 1310 ± 420 nM and the IC50 (P. falciparum D10 strain) was 1660 ± 370 nM. For the same compound, the “suppression of parasite growth vs untreated controls” value (Plasmodium berghei; oral or subcutaneous 50–90 mg/kg/day, ref literature (numbers not shown)) was “failed to significantly suppress parasite growth”, the “toxicity to FM3A cells” value [6] was “toxic” and the “toxicity to Hs578Bst cells” value (Hs578Bst cells) was “no appreciable toxicity”. For the same compound, the “toxicity to HME cells” value [7] was “no appreciable toxicity”.

In the case of `CC(=O)O[C@H]1[C@@H](OC(C)=O)[C@]2(C)[C@H](CC[C@@]3(C)[C@H](c4ccoc4)OC(=O)[C@H]4O[C@@]423)[C@@]2(C)C=CC(=O)C(C)(C)[C@H]12` [compound 12, 6α-acetoxygedunin], the IC50 (MRC-5 human fibroblasts [8]) is given as over 110000 nM, the IC50 (P. falciparum K1 strain) is given as 7000 nM and the IC50 (P. falciparum Dd2 strain) is given as 2100 ± 200 nM. The suppression of parasitemia (Plasmodium berghei; oral 50–100 mg/kg/day, ref authors' earlier work (number not shown)) was 40–66%.
